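Following 48 hours of exposure in 96-well plates, responses at five concentrations were used to interpolate endpoints linearly. TGI denotes the concentration required for complete inhibition of growth.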 Where a SMILES comes first, the peptide text is derived from it. [ ]: non-standard residue; d: D form. The star is where a group is joined. ξ: configuration not given here. ξF = NC(Cc1ccccc1)C(=O)O; Cbz = O=C(OCc1ccccc1)*; Aib = CC(C)(N)C(=O)O
Tests used:
Assay in all cases: growth of human tumour cells (NCI), 48 h
786-0 renal = test system: 786-0 renal
A498 renal = test system: A498 renal
A549 NSCLC = test system: A549 NSCLC
BT-549 breast = test system: BT-549 breast
CAKI-1 renal = test system: CAKI-1 renal
CCRF-CEM leukemia = test system: CCRF-CEM leukemia
COLO 205 colon = test system: COLO 205 colon
DU-145 prostate = test system: DU-145 prostate
HCT-116 colon = test system: HCT-116 colon
HCT-15 colon = test system: HCT-15 colon
HOP-62 NSCLC = test system: HOP-62 NSCLC
HOP-92 NSCLC = test system: HOP-92 NSCLC
HS 578T breast = test system: HS 578T breast
HT29 colon = test system: HT29 colon
IGROV1 ovarian = test system: IGROV1 ovarian
K-562 leukemia = test system: K-562 leukemia
KM12 colon = test system: KM12 colon
LOX IMVI melanoma = test system: LOX IMVI melanoma
M14 melanoma = test system: M14 melanoma
MALME-3M melanoma = test system: MALME-3M melanoma
MCF7 breast = test system: MCF7 breast
MDA-MB-231 breast = test system: MDA-MB-231 breast
MDA-MB-435 = test system: MDA-MB-435
MDA-N = test system: MDA-N
MOLT-4 leukemia = test system: MOLT-4 leukemia
NCI-H226 lung = test system: NCI-H226 lung
NCI-H23 lung = test system: NCI-H23 lung
NCI-H460 lung = test system: NCI-H460 lung
NCI-H522 lung = test system: NCI-H522 lung
NCI/ADR-RES ovarian = test system: NCI/ADR-RES ovarian
OVCAR-3 ovarian = test system: OVCAR-3 ovarian
OVCAR-4 ovarian = test system: OVCAR-4 ovarian
OVCAR-5 ovarian = test system: OVCAR-5 ovarian
OVCAR-8 ovarian = test system: OVCAR-8 ovarian
PC-3 prostate = test system: PC-3 prostate
RPMI-8226 leukemia = test system: RPMI-8226 leukemia
SF-295 CNS = test system: SF-295 CNS
SF-539 CNS = test system: SF-539 CNS
SK-MEL-2 melanoma = test system: SK-MEL-2 melanoma
SK-MEL-28 melanoma = test system: SK-MEL-28 melanoma
SK-MEL-5 melanoma = test system: SK-MEL-5 melanoma
SK-OV-3 ovarian = test system: SK-OV-3 ovarian
SN12C renal = test system: SN12C renal
SNB-19 CNS = test system: SNB-19 CNS
SNB-75 CNS = test system: SNB-75 CNS
SW-620 colon = test system: SW-620 colon
T-47D breast = test system: T-47D breast
U251 CNS = test system: U251 CNS
UACC-257 melanoma = test system: UACC-257 melanoma
UACC-62 melanoma = test system: UACC-62 melanoma
UO-31 renal = test system: UO-31 renal
ACHN renal = test system: ACHN renal
EKVX NSCLC = test system: EKVX NSCLC
HCC-2998 colon = test system: HCC-2998 colon
HL-60(TB) leukemia = test system: HL-60(TB) leukemia
RXF 393 renal = test system: RXF 393 renal
SF-268 CNS = test system: SF-268 CNS
SR leukemia = test system: SR leukemia
TK-10 renal = test system: TK-10 renal

In the case of `CC(C)(NC(=O)OCc1ccccc1)C(=O)NC(Cc1ccccc1)C(=O)O` (stereo not given) (Cbz-[Aib]-[ξF]-OH), the TGI (786-0 renal) is reported as over 100 µM, the TGI (A498 renal) is reported as over 100 µM and the TGI (A549 NSCLC) is reported as over 100 µM. The TGI (BT-549 breast) was over 100 µM, the TGI (CAKI-1 renal) was over 100 µM and the TGI (CCRF-CEM leukemia) was over 100 µM. The TGI (COLO 205 colon) was over 100 µM, the TGI (DU-145 prostate) was over 100 µM and the TGI (HCT-116 colon) was over 100 µM. The TGI (HCT-15 colon) was over 100 µM, the TGI (HOP-62 NSCLC) was over 100 µM and the TGI (HOP-92 NSCLC) was over 100 µM. For the same compound, the TGI (HS 578T breast) was over 100 µM, the TGI (HT29 colon) was over 100 µM and the TGI (IGROV1 ovarian) was over 100 µM. It also gave a TGI (K-562 leukemia) of over 100 µM, a TGI (KM12 colon) of over 100 µM and a TGI (LOX IMVI melanoma) of over 100 µM. It also gave a TGI (M14 melanoma) of over 100 µM, a TGI (MALME-3M melanoma) of over 100 µM and a TGI (MCF7 breast) of over 100 µM. For the same compound, the TGI (MDA-MB-231 breast) was over 100 µM, the TGI (MDA-MB-435) was over 100 µM and the TGI (MDA-N) was over 100 µM. The TGI (MOLT-4 leukemia) was over 100 µM, the TGI (NCI-H226 lung) was over 100 µM and the TGI (NCI-H23 lung) was over 100 µM. It also gave a TGI (NCI-H460 lung) of over 100 µM, a TGI (NCI-H522 lung) of over 100 µM and a TGI (NCI/ADR-RES ovarian) of over 100 µM. For the same compound, the TGI (OVCAR-3 ovarian) was over 100 µM, the TGI (OVCAR-4 ovarian) was over 100 µM and the TGI (OVCAR-5 ovarian) was over 100 µM. The TGI (OVCAR-8 ovarian) was over 100 µM, the TGI (PC-3 prostate) was over 100 µM and the TGI (RPMI-8226 leukemia) was over 100 µM. For the same compound, the TGI (SF-295 CNS) was over 100 µM, the TGI (SF-539 CNS) was over 100 µM and the TGI (SK-MEL-2 melanoma) was over 100 µM. For the same compound, the TGI (SK-MEL-28 melanoma) was over 100 µM, the TGI (SK-MEL-5 melanoma) was over 100 µM and the TGI (SK-OV-3 ovarian) was over 100 µM. For the same compound, the TGI (SN12C renal) was over 100 µM, the TGI (SNB-19 CNS) was over 100 µM and the TGI (SNB-75 CNS) was over 100 µM. For the same compound, the TGI (SW-620 colon) was over 100 µM, the TGI (T-47D breast) was over 100 µM and the TGI (U251 CNS) was over 100 µM. It also gave a TGI (UACC-257 melanoma) of over 100 µM, a TGI (UACC-62 melanoma) of over 100 µM and a TGI (UO-31 renal) of over 100 µM.
`O=C(Nc1sccc1S(=O)(=O)c1ccccc1)c1cccnc1` showed a TGI (786-0 renal) of over 100 µM, a TGI (A549 NSCLC) of over 100 µM and a TGI (ACHN renal) of over 100 µM. For the same compound, the TGI (BT-549 breast) was over 86.1 µM, the TGI (CAKI-1 renal) was over 100 µM and the TGI (CCRF-CEM leukemia) was over 24.5 µM. For the same compound, the TGI (COLO 205 colon) was 18 µM, the TGI (DU-145 prostate) was over 100 µM and the TGI (EKVX NSCLC) was over 100 µM. For the same compound, the TGI (HCC-2998 colon) was over 100 µM, the TGI (HCT-116 colon) was over 100 µM and the TGI (HCT-15 colon) was over 100 µM. It also gave a TGI (HL-60(TB) leukemia) of 4.28 µM, a TGI (HOP-62 NSCLC) of over 100 µM and a TGI (HOP-92 NSCLC) of over 100 µM. The TGI (HS 578T breast) was over 100 µM, the TGI (HT29 colon) was over 100 µM and the TGI (IGROV1 ovarian) was over 94.2 µM. The TGI (K-562 leukemia) was over 100 µM, the TGI (KM12 colon) was over 100 µM and the TGI (LOX IMVI melanoma) was over 100 µM. It also gave a TGI (M14 melanoma) of over 100 µM, a TGI (MALME-3M melanoma) of over 100 µM and a TGI (MCF7 breast) of over 100 µM. For the same compound, the TGI (MDA-MB-231 breast) was over 100 µM, the TGI (MDA-MB-435) was 8.36 µM and the TGI (MDA-N) was 3.63 µM. It also gave a TGI (MOLT-4 leukemia) of over 100 µM, a TGI (NCI-H226 lung) of over 59.3 µM and a TGI (NCI-H23 lung) of over 80.2 µM. It also gave a TGI (NCI-H460 lung) of over 100 µM, a TGI (NCI-H522 lung) of over 85.4 µM and a TGI (NCI/ADR-RES ovarian) of over 52.7 µM. It also gave a TGI (OVCAR-3 ovarian) of over 100 µM, a TGI (OVCAR-4 ovarian) of over 100 µM and a TGI (OVCAR-5 ovarian) of over 100 µM. The TGI (OVCAR-8 ovarian) was over 100 µM, the TGI (PC-3 prostate) was over 100 µM and the TGI (RPMI-8226 leukemia) was over 100 µM. For the same compound, the TGI (RXF 393 renal) was over 100 µM, the TGI (SF-268 CNS) was over 100 µM and the TGI (SF-295 CNS) was over 100 µM. For the same compound, the TGI (SF-539 CNS) was 38.2 µM, the TGI (SK-MEL-2 melanoma) was over 100 µM and the TGI (SK-MEL-28 melanoma) was over 100 µM. It also gave a TGI (SK-MEL-5 melanoma) of over 26.3 µM, a TGI (SK-OV-3 ovarian) of over 89.1 µM and a TGI (SN12C renal) of over 100 µM. For the same compound, the TGI (SNB-19 CNS) was over 100 µM, the TGI (SNB-75 CNS) was over 91 µM and the TGI (SR leukemia) was over 100 µM. For the same compound, the TGI (SW-620 colon) was over 100 µM, the TGI (T-47D breast) was over 100 µM and the TGI (TK-10 renal) was over 100 µM. It also gave a TGI (U251 CNS) of over 100 µM, a TGI (UACC-257 melanoma) of over 100 µM and a TGI (UACC-62 melanoma) of over 100 µM. It also gave a TGI (UO-31 renal) of over 100 µM.
Work on `Cc1cnoc1NC1=CC(=O)C(=O)c2ccccc21` yielded a TGI (786-0 renal) of over 100 µM, a TGI (A498 renal) of over 100 µM and a TGI (A549 NSCLC) of 63.8 µM. It also gave a TGI (ACHN renal) of over 100 µM, a TGI (BT-549 breast) of over 100 µM and a TGI (CAKI-1 renal) of over 100 µM. It also gave a TGI (CCRF-CEM leukemia) of 44.6 µM, a TGI (COLO 205 colon) of over 100 µM and a TGI (DU-145 prostate) of 61.2 µM. It also gave a TGI (EKVX NSCLC) of over 100 µM, a TGI (HCT-116 colon) of 70.8 µM and a TGI (HCT-15 colon) of over 100 µM. It also gave a TGI (HOP-62 NSCLC) of over 100 µM, a TGI (HOP-92 NSCLC) of over 100 µM and a TGI (HS 578T breast) of over 100 µM. For the same compound, the TGI (HT29 colon) was 90 µM, the TGI (IGROV1 ovarian) was over 100 µM and the TGI (K-562 leukemia) was 10.9 µM. The TGI (KM12 colon) was over 100 µM, the TGI (LOX IMVI melanoma) was over 100 µM and the TGI (M14 melanoma) was over 100 µM. It also gave a TGI (MALME-3M melanoma) of 9.81 µM, a TGI (MCF7 breast) of 16.4 µM and a TGI (MDA-MB-231 breast) of over 100 µM. It also gave a TGI (MDA-MB-435) of 2.64 µM, a TGI (MDA-N) of 3.01 µM and a TGI (MOLT-4 leukemia) of 38.8 µM. It also gave a TGI (NCI-H226 lung) of over 100 µM, a TGI (NCI-H23 lung) of 32.7 µM and a TGI (NCI-H460 lung) of over 100 µM. The TGI (NCI-H522 lung) was over 100 µM, the TGI (NCI/ADR-RES ovarian) was 70.9 µM and the TGI (OVCAR-3 ovarian) was over 100 µM. It also gave a TGI (OVCAR-4 ovarian) of over 100 µM, a TGI (OVCAR-5 ovarian) of 55.9 µM and a TGI (OVCAR-8 ovarian) of over 100 µM. It also gave a TGI (PC-3 prostate) of over 100 µM, a TGI (RPMI-8226 leukemia) of 50.3 µM and a TGI (SF-268 CNS) of 94.3 µM. For the same compound, the TGI (SF-295 CNS) was over 100 µM, the TGI (SF-539 CNS) was 58.2 µM and the TGI (SK-MEL-2 melanoma) was 10.5 µM. For the same compound, the TGI (SK-MEL-28 melanoma) was over 100 µM, the TGI (SK-MEL-5 melanoma) was 12 µM and the TGI (SK-OV-3 ovarian) was over 100 µM. For the same compound, the TGI (SN12C renal) was 3.53 µM, the TGI (SNB-19 CNS) was 73.5 µM and the TGI (SNB-75 CNS) was over 100 µM. For the same compound, the TGI (SR leukemia) was over 100 µM, the TGI (SW-620 colon) was 80.4 µM and the TGI (T-47D breast) was over 100 µM. The TGI (TK-10 renal) was over 100 µM, the TGI (U251 CNS) was 13.9 µM and the TGI (UACC-257 melanoma) was 49.3 µM. It also gave a TGI (UACC-62 melanoma) of 29.9 µM and a TGI (UO-31 renal) of 74.6 µM.
